The results in this text go back to patent US6514988B1, “Condensed-ring thiophene derivatives, their production and use” (Takeda Chemical Industries, Ltd., priority 1994, dated 2003).

In one series the test system is male SD rats. Nature of the series: Suppression of testosterone concentration in rat plasma. The note with it: 30 mg per 1 kg once subcutaneously, plasma at 24 hours after administration, p<0.05. The class given is in vivo. How it is done: The compound 15 produced in Working Example 9 was dissolved in vehicle I (20% propylene glycol-80% physiological saline). The solution was administered once subcutaneously to male SD rats (8-week old, n=5). […] Animals administered with the vehicle alone were used as control.

For series [1], the system named is primary cultured cells of rat pituitary anterior lobes. Nature of the series: Inhibition of LH/FSH secretion by primary cultured cells of rat pituitary anterior lobes. Format: cell-based. The note with it: 100 μl of 20 μM compound solution + 100 μl of 5 nM GnRH in 800 μl medium, 37° C. for 3 hours. How it is done: Anterior lobes of pituitary glands from 40 Wistar rats (8-week old, male) was put into a petri dish containing buffer A (0.7 mM sodium dihydrogen phosphate, 137 mM sodium chloride, 5 mM potassium chloride, 25 mM HEPES, 50 μg/ml gentamicin sulfate), which was once washed with the buffer A, then the anterior lobes were divided into four portions, followed by further washing twice. […] The concentrations of […] and FSH in the supernatant were determined by using the radio immunoassay kit (Amersham Inc.).
By calculating in accordance with the formula; 100−(LH or FSH concentration in the presence of the compound)/(LH or FSH concentration of the control culture)×100, the inhibiting rate (%) of LH or FSH secretion by each compound was determined. […]

A further series relates to male ICR mice. The note with it: 30 mg per 1 kg orally once a day during 3 days, plasma at 24 hours after administration, p<0.05.

Counter-ions that a name gives are not always drawn. Like-named read-outs stand apart in the source and are kept apart here.

Method for male ICR mice: The solution was administered oraly once a day during successive 3 days to male ICR mice (10-week old, n=12). The dosage was 30 mg per 1 kg of body weight. ICR mice administered with vehicle alone were used as control (n=15). At 24 hours after the administration, blood was collected from jugular vein under anesthesia with ether. To the blood were immediately added ethylenediamine tetracetate (EDTA) at a final concentration of 3 mg/ml and aprotinin at a final concentration of 300 KIU/ml. The mixture was centrifuged for 15 minutes at 3000×g, and the concentration of testosterone in the plasma was measured by the radio immunoassay.
The rate of testosterone suppression (%) of the test compound was determined by the formula; 100−(concentration of plasma testosterone in the test group)/(concentration of plasma testosterone in the control group)×100.

Usually melting point stands for the temperature, or range, at which the solid turns liquid. `CCOC(=O)c1cn(Cc2ccccc2OC)c2sc(-c3ccc(OC)cc3)c(CN(C)Cc3ccccc3)c2c1=O` (as salt: hydrochloride) [3-(N-benzyl-N-methylaminomethyl)-4,7-dihydro-7-(2-methoxybenzyl)-2-(4-methoxyphenyl)-4-oxothieno[2,3-b]pyridine-5-carboxylic acid ethyl ester] gave a melting point of 147 to 152 °C. `CCOC(=O)c1cn(Cc2ccccc2OC)c2sc(-c3ccc(OC)cc3)c(CN(C)Cc3ccccc3)c2c1=O` [3-(N-benzyl-N-methylaminomethyl)-4,7-dihydro-7-(2-methoxybenzyl)-2-(4-methoxyphenyl)-4-oxothieno[2,3-b]pyridine-5-carboxylic acid ethyl ester]: the “rate of testosterone suppression (%)” value with male SD rats worked out at 38±9.7%. In addition, the inhibition at 20 µM (stock) worked out at 20 ± 10% in series [1] (p<0.01, n=3, read-out: inhibiting rate (%) of FSH secretion) and 28 ± 9% in series [1] (p<0.01, n=3, read-out: inhibiting rate (%) of LH secretion). With `CCC(=O)Nc1ccc(-c2sc3c(c2CN(C)Cc2ccccc2)c(=O)c(C(=O)c2ccccc2)cn3Cc2c(F)cccc2F)cc1` [Working Example 56, 5-Benzoyl-7-(2,6-difluorobenzyl)-4,7-dihydro-3-(N-methyl-N-benzylaminomethyl)-2-(4-propionylamidophenyl)-4-oxothieno[2,3-b]pyridine], the “rate of testosterone suppression (%)” value in the series on male ICR mice was 85±9.7%.
